Laboratory results from article PMC8760513, “Mechanistic details of the actinobacterial lyase-catalyzed degradation reaction of 2-hydroxyisobutyryl-CoA” (The Journal of Biological Chemistry, 2021).

Biological target: T1, AcHACL (Actinomycetospora chiangmaiensis, UniProt P0DUV9)
T1 construct: recombinant from E. coli Lemo21(DE3), vector pASG-IBA43, N-terminal His-tag and C-terminal Strep-tag; tag removal not mentioned; homotetramer (dimer of dimers); C-terminal lid residues 556-590
T1 sequence (P0DUV9 1-590): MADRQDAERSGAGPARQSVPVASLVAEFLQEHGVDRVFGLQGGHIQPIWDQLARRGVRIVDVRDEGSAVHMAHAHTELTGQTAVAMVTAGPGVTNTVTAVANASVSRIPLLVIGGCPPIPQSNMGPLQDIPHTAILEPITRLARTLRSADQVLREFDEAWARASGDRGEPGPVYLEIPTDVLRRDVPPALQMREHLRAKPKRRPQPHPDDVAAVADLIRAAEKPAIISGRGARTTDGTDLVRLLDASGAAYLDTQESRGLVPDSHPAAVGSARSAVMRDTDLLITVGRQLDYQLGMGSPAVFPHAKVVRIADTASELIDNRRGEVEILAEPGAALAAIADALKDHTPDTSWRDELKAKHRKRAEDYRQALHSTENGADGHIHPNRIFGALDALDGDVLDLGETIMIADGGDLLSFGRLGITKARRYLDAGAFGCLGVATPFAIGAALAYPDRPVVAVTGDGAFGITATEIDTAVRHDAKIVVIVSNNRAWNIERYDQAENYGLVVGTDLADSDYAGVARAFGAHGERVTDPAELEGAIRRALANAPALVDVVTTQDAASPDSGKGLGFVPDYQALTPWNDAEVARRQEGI
Assay: X-ray crystal structure, […] Å
Format: binding

Row | SMILES | X-ray crystal structure, 1.64 Å (product-bound dimer formed from 2-HIB-CoA in the crystal, density not well defined beyond the pantoyl moiety) | X-ray crystal structure, 1.64 Å (product-bound dimer, additional density near ThDP interpreted as acetone, hydrogen bond to E493)
1 | CC(C)(COP(=O)(O)OP(=O)(O)OC[C@H]1O[C@@H](n2cnc3c(N)ncnc32)[C@H](O)[C@@H]1OP(=O)(O)O)[C@@H](O)C(=O)NCCC(=O)NCCSC=O [formyl-CoA] | the products formyl-CoA and acetone are bound to the other dimer | 
2 | CC(C)=O [acetone] |  | additional electron density close to the ThDP cofactor was interpreted as an acetone molecule
